Legend:
[1] = test system: resistance genes, PR1, PR2 and PDF1.2; assay: Resistance-inducing effect (expression of resistance genes overall); assay type: in vivo, Arabidopsis thaliana; details: used instead of the oxo fatty acid
Experimental: As Example 1, 0.15% potassium bicarbonate aqueous solution containing 0.012% of 13-oxo-9,11-octadecadienoic acid was prepared. (9Z,11E)-13-oxo-9,11-octadecadienoic acid (13-oxoODA, Cayman Chemical Company, INC.) was used as a 13-oxo-9,11-octadecadienoic acid. As Comparative Examples, 0.15% potassium bicarbonate aqueous solution containing 0.012% of a fatty acid analog, which is selected from 13-HPODE ((9Z,11E)-13-hydroperoxy-9,11-octadecadienoic acid, Cayman Chemical Company, INC.), 9-HPODE ((10Z,12E)-9-hydroperoxy-10,12-octadecadienoic acid, Cayman Chemical Company, INC.), 9-HPOTE ((10E,12Z,15Z)-9-hydroperoxy-10,12,15-octadecatrienoic acid, Cayman Chemical Company, INC.), 9-HOTE ((10E,12Z,15Z)-9-hydroxy-10,12,15-octadecatrienoic acid, Cayman Chemical Company, INC.), 13-HPOTE ((9Z, 11E, 15Z)-13-hydroperoxy-9,11,15-octadecatrienoic acid, Cayman Chemical Company, INC.), 13-HOTE ((9Z, 11E, 15Z)-13-hydroxy-9,11,15-octadecatrienoic acid, Cayman Chemical Company, INC.) and 12-OPDA (12-oxo-phytodienoic acid, Cayman Chemical Company, INC.), and 0.15% potassium bicarbonate aqueous solution containing 0.012% of an α-ketol fatty acid were prepared. An aqueous solution of α-ketol fatty acid was prepared according to the preparation method described below.
As Example 2, 0.15% dipotassium hydrogenphosphate aqueous solution containing 0.012% of 13-oxo-9,11-octadecadienoic acid was prepared. (9Z,11E)-13-oxo-9,11-octadecadienoic acid (13-oxoODA, Cayman Chemical Company, INC.) was used as a 13-oxo-9,11-octadecadienoic acid. […]
(§1) Each of the aqueous solutions obtained from Examples 1 and 2 was applied using the watering to treat only the roots (underground part) of Arabidopsis thaliana plants grown in the soil. The total RNA was isolated 24 hours after treatment from each Arabidopsis thaliana plant treated with each of the aqueous solutions and from the untreated Arabidopsis thaliana plant as a control, and the cDNA was synthesized from the isolated total RNA, and then the expression levels of resistance genes, PR1, PR2 and PDF1.2 were analyzed by real-time PCR. […]

PR1 gene = assay: Evaluation of the resistance gene expression (real-time PCR), PR1; assay type: in vivo, Arabidopsis thaliana; details: 0.012% in 0.15% potassium bicarbonate (FIG. 1) or 0.15% dipotassium hydrogenphosphate (FIG. 2) aqueous solution, watering of roots, RNA 24 hours after treatment
Experimental: (§2) As Example 1, 0.15% potassium bicarbonate aqueous solution containing 0.012% of 13-oxo-9,11-octadecadienoic acid was prepared. (9Z,11E)-13-oxo-9,11-octadecadienoic acid (13-oxoODA, Cayman Chemical Company, INC.) was used as a 13-oxo-9,11-octadecadienoic acid. […]
as §1

[2] = biological target: T1, PPARα (peroxisome proliferator-activated receptor α) (Homo sapiens, UniProt Q07869); details: known from prior art; cited from earlier work
T1 sequence (Q07869 1-468): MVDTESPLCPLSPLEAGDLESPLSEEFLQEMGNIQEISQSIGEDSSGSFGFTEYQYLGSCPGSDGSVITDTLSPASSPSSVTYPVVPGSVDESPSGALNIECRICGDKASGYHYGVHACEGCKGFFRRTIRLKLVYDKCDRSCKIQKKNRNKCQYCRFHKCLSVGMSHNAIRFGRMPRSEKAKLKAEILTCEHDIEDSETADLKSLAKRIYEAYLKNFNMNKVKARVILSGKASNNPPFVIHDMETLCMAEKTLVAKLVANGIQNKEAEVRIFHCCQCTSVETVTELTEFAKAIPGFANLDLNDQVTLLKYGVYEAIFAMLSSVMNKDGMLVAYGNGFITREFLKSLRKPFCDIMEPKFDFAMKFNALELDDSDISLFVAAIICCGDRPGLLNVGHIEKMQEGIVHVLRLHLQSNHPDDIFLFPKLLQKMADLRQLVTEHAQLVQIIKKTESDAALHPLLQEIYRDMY

PR2 gene = assay: Evaluation of the resistance gene expression (real-time PCR), PR2; assay type: in vivo, Arabidopsis thaliana; details: 0.012% in 0.15% potassium bicarbonate (FIG. 1) or 0.15% dipotassium hydrogenphosphate (FIG. 2) aqueous solution, watering of roots, RNA 24 hours after treatment
Experimental: as §2, §1

PDF1.2 gene = assay: Evaluation of the resistance gene expression (real-time PCR), PDF1.2; assay type: in vivo, Arabidopsis thaliana; details: 0.012% in 0.15% potassium bicarbonate (FIG. 1) or 0.15% dipotassium hydrogenphosphate (FIG. 2) aqueous solution, watering of roots, RNA 24 hours after treatment
Experimental: as §2, §1

| Molecule | resistance-inducing effect (effect on the expression of resistance-inducing traits) [1] | other results |
| --- | --- | --- |
| hydroperoxy octadecatrienoic acid [HPOTE] | is not obtained |  |
| hydroperoxyoctadecadienoic acid [HPODE] | is not obtained |  |
| CCCCCC(=O)/C=C/C=C\CCCCCCCC(=O)O [13-oxoODA, (9Z,11E)-13-oxo-9,11-octadecadienoic acid] |  | expression level of resistance gene PR1 (PR1 gene): significantly higher expressions; agonist activity to activate transcription factor PPARα [2]: strong agonist activity; expression level of resistance gene PR2 (PR2 gene): significantly higher expressions |
| CC/C=C\CC(/C=C/C=C\CCCCCCCC(=O)O)OO (centres unmarked) [13-HPOTE, (9Z, 11E, 15Z)-13-hydroperoxy-9,11,15-octadecatrienoic acid] | does not provide any resistance-inducing effect |  |
| hydroxy octadecatrienoic acid [HOTE] | is not obtained |  |
| CC/C=C\C[C@@H]1C(=O)C=C[C@@H]1CCCCCCCC(=O)O [12-OPDA, 12-oxo-phytodienoic acid] |  | expression level of resistance gene PDF1.2 (PDF1.2 gene): induced the expression |

— US11457627B2, “Plant activator” (IBIDEN CO., LTD., priority 2017, dated 2022)
